Results from patent EP3570868B1, “[…] ANTIMICROBIAL PEPTIDES AND THEIR APPLICATIONS FOR THE TREATMENT AND PREVENTION OF MUSCU[…]” (Ustav Organicke Chemie a Biochemie AV CR, v.v.i., priority 2017, dated 2018).

Tests used:
[1] = tested on: Bacillus subtilis; assay type: cell-based; settings: B.s.; 37° C for 20 h
Outline: (§1)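 Exponential-phase cultures, diluted in fresh medium (BHI for E. faecalis, LB for the others), were added to peptides in LB at final 0.5 to 100 µmol.l^-1, ca 10^5 CFU per well. Plates were shaken at 37 °C for 20 h with A540 read every 15 min; MIC was taken from growth.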

[2] = tested on: Candida albicans; assay type: cell-based; settings: C.a.; 37° C for 20 h
[3] = tested on: Escherichia coli; assay type: cell-based; settings: E.c.; 37° C for 20 h
Outline: as §1

[4] = tested on: MRSA (clin. isolate Liberec); assay type: cell-based, Staphylococcus aureus; settings: 37° C for 20 h
Outline: as §1

[5] = tested on: MRSA (clin. isolate Motol); assay type: cell-based, Staphylococcus aureus; settings: 37° C for 20 h
Outline: (§2)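 Bacteria are grown to exponential phase, diluted and mixed with peptide solutions in LB so that wells hold 0.5–100 µmol.l^-1 peptide and about 10^5 CFU. Incubation runs 20 h at 37 °C under shaking, with absorbance at 540 nm followed throughout to give the MIC.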

[6] = tested on: MRSA 6271; assay type: cell-based, Staphylococcus aureus; settings: 37° C for 20 h
Outline: as §2

[7] = tested on: S.e. (clin. isolate Motol); assay type: cell-based, Staphylococcus epidermidis; settings: 37° C for 20 h
Outline: as §2

[8] = tested on: E.f. (clin. isolate Motol); assay type: cell-based, Enterococcus faecalis; settings: 37° C for 20 h
Outline: as §2

[9] = tested on: P.a. (clin. isolate Liberec); assay type: cell-based, Pseudomonas aeruginosa; settings: 37° C for 20 h
Outline: as §1

[10] = tested on: P.a. 5482; assay type: cell-based, Pseudomonas aeruginosa; settings: 37° C for 20 h
Outline: as §2

[11] = tested on: human red blood cells; test: Determination of haemolytic activity; assay type: cell-based; settings: human red blood cells (5% v/v), 1 h at 37 °C; concentration for lysis of 50% of erythrocytes
Outline: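 Peptides at 2-400 µmol.1^-1 were incubated with 5% v/v human erythrocytes in physiological solution for 1 h at 37 °C; haemoglobin release measured as supernatant absorbance at 540 nm after centrifugation, with 0.2% Triton X-100 as 100% lysis. Reported as LC50, the concentration lysing 50% of cells.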

[12] = tested on: Candida albicans (clin. isolate Olomouc); test: Biofilm formation on the surface of a bone cement implant in femur heads; assay type: cell-based; settings: two days, cement without peptide 8.0x10^4
Protocol: (§3) The resulting elastic paste is placed into a 2 ml plastic syringe (without needle) and pressed into the infected holes in the spongy part of the bone, where it polymerizes and hardens. For comparison, other similarly infected holes are filled with cement containing only an antibiotic or antimycotic agent. For comparison, a Vancogenx® cement (Tecresa S. p. A., Italy) is used, made from a mixture of a powdered polymer component containing vancomycin and gentamicin. The mixture in an amount of 125 mg is mixed with liquid monomer (50-60 µl) and then pressed into the openings as described above. In another embodiment, the cements are applied to uninfected holes, allowed to harden, and then microbes are pipetted into the hole excavated between implants. From there they penetrate through bone tissue and settle on the implants with consequent formation of biofilms.
After two days, implants are removed with metal spikes and tweezers, mechanically cleaned from debris of bone tissue, and washed four times with physiological saline (0.5 ml) in plastic tubes to remove any residual planktonic microbes or bone cells from their surface. The implants in closed tubes with 0.4 ml saline are then sonicated four times for 3 min with occasional shaking. The of microbial biofilm on the surface of the implant is thus disrupted and microbes are loosed into the physiological saline. The resulting suspension is subsequently diluted using the tenfold serial dilution for culturing on agar.
Evaluation of the effect of antimicrobial peptides on the formation of microbial biofilm on the surface of the implant made of the bone cement.

[13] = tested on: Candida albicans ATCC MYA-2876; test: as above; assay type: cell-based; settings: two days, cement without peptide 4.4x10^5
Protocol: The resulting elastic paste is placed into a 2 ml plastic syringe (without needle) and pressed into the infected holes in the spongy part of the bone, where it polymerizes and hardens. For comparison, other similarly infected holes are filled with cement containing only an antibiotic or antimycotic agent. […] The mixture in an amount of 125 mg is mixed with liquid monomer (50-60 µl) and then pressed into the openings as described above. In another embodiment, the cements are applied to uninfected holes, allowed to harden, and then microbes are pipetted into the hole excavated between implants. From there they penetrate through bone tissue and settle on the implants with consequent formation of biofilms.
After two days, implants are removed with metal spikes and tweezers, mechanically cleaned from debris of bone tissue, and washed four times with physiological saline (0.5 ml) in plastic tubes to remove any residual planktonic microbes or bone cells from their surface. The implants in closed tubes with 0.4 ml saline are then sonicated four times for 3 min with occasional shaking. The of microbial biofilm on the surface of the implant is thus disrupted and microbes are loosed into the physiological saline. The resulting suspension is subsequently diluted using the tenfold serial dilution for culturing on agar. […]

[14] = tested on: Candida glabrata DSY565; test: as above; assay type: cell-based; settings: two days, cement without peptide 1.3x10^6
Protocol: as §3
After two days, implants are removed with metal spikes and tweezers, mechanically cleaned from debris of bone tissue, and washed four times with physiological saline (0.5 ml) in plastic tubes to remove any residual planktonic microbes or bone cells from their surface. The implants in closed tubes with 0.4 ml saline are then sonicated four times for 3 min with occasional shaking. The of microbial biofilm on the surface of the implant is thus disrupted and microbes are loosed into the physiological saline. […]

[15] = tested on: Candida albicans yeast (clinical isolate Olomouc); test: Comparison of two similar halictin peptides for biofilm formation on the implant surface (yeast pipetted into a hole between implants); assay type: cell-based; settings: 3.5 mg peptide in 100 mg powder cement component; two days; implant without peptide 1.8 × 10^3
Protocol: The experiment was performed under similar conditions as described in Example 5. Here, 100 mg of the powder cement component was used to prepare a paste, which was mixed with in 3.5 mg of peptide XIII and subsequently 52 µl of liquid component. The resulting paste was thoroughly mixed and then pressed into a hole prepared in the spongy part of the bone. To a next hole in the spongy part of the same bone a paste was pressed, containing comparative peptide Hal 2/4 (3.5 mg) with the sequence H-[…]NH2, which was also prepared from 100 mg of the powder component and 52 µl of the liquid component. The third hole was filled with paste without peptide prepared from the same amount of components. The Candida albicans yeast (clinical isolate Olomouc), grown in YPG, was pipetted in the hole excavated between implants equidistant (approximately 1 cm) from each. From there, the yeast penetrated through the bone tissue and was deposited on the implant with consequent formation of biofilms.
Then the implants in closed tubes with 0.4 ml of saline were treated ultrasonically four times for three minutes with occasional shaking. This way, microbial biofilm on the surface of the implant was disrupted and microbes loosed into the physiological saline. The resulting suspension was then diluted in a decimal dilution series for culturing on agar. […]

With `CC[C@H](C)[C@H](NC(=O)[C@H](CCCCN)NC(=O)[C@H](CCCCN)NC(=O)[C@@H](CC(C)C)NC(=O)[C@H](CC(C)C)NC(=O)[C@H](CCCCN)NC(=O)[C@H](CCSC)NC(=O)[C@H](Cc1c[nH]c2ccccc12)NC(=O)[C@H](CCCCN)NC(=O)CN)C(=O)N[C@@H](CC(C)C)C(=O)N[C@@H](CCCCN)C(N)=O` [XIII] the “Antimicrobial activity MIC” value [1] was 2,8 µmol.l^-1, the “Antimicrobial activity MIC” value [2] was 8,0 µmol.l^-1 and the “Antimicrobial activity MIC” value [3] was 10,0 µmol.l^-1. The “Antimicrobial activity MIC” value [4] was 13,3 µmol.l^-1, the “Antimicrobial activity MIC” value [5] was 32,0 µmol.l^-1 and the “Antimicrobial activity MIC” value [6] was 18,7 µmol.l^-1. The “Antimicrobial activity MIC” value [7] was 4,0 µmol.l^-1, the “Antimicrobial activity MIC” value [8] was >100 µmol/L and the “Antimicrobial activity MIC” value [9] was 32,0 µmol.l^-1. For the same compound, the “Antimicrobial activity MIC” value [10] was 5,0 µmol.l^-1, the “Hemolytic activity LC50” value [11] was >400 µmol/L and the CFU/implant [12] was 0 CFU/implant. The CFU/implant [13] was 6.0x10^3 CFU/implant, the CFU/implant [14] was 2.4x10^3 CFU/implant and the “number of colonies from the surface of the implant” value [15] was “zero”.
